Source: the NIST ThermoML archive (doi:10.1016/j.jct.2006.11.001)
Numbers after ± are expanded uncertainties.

Experiments:
[1] = molar heat capacity at constant pressure; xn = mol fraction of the nth substance listed; conditions: Liquid, thermal relaxation method
[2] = molar heat capacity at constant pressure; conditions: Liquid, thermal relaxation method

CO [methanol] + O
molar heat capacity at constant pressure [J/K/mol], [1]
Conditions	x1 = 0.0496	x1 = 0.101	x1 = 0.1936	x1 = 0.2606	x1 = 0.4949	x1 = 0.7943
280 K, 100 kPa	81.21 ± 1.5	82.78 ± 1.6	82.72 ± 1.7	82.56 ± 1.7	79.36 ± 2	77.85 ± 2.3
280 K, 1000 kPa	81.39 ± 1.5	83.75 ± 1.6	85 ± 2.1	85.38 ± 2.2	82.11 ± 2.5	80.76 ± 2.9
280 K, 5000 kPa	82.14 ± 4.1	83.95 ± 4.3	85.2 ± 4.1	84.52 ± 4.3	79.61 ± 5	76.97 ± 5.8
320 K, 100 kPa	80.27 ± 0.75	84.53 ± 0.78	87.9 ± 0.83	89.5 ± 0.87	89.35 ± 1	89.22 ± 1.2
320 K, 1000 kPa	79.52 ± 2.2	83.75 ± 2.3	88.52 ± 2.5	89.72 ± 2.6	89.1 ± 3	87.76 ± 2.9
320 K, 5000 kPa	81.95 ± 1.9	85.5 ± 1.9	89.76 ± 2.1	91.67 ± 2.2	88.6 ± 2.5	87.76 ± 2.9
360 K, 1000 kPa	81.02 ± 1.1	84.72 ± 1.2	90.8 ± 1.2	92.75 ± 1.3	94.34 ± 1.5	94.47 ± 1.8
360 K, 5000 kPa	80.83 ± 1.1	84.53 ± 1.2	90.59 ± 1.2	92.97 ± 1.3	93.59 ± 1.5	94.47 ± 1.8
360 K, 10000 kPa	82.52 ± 1.1	86.28 ± 1.2	92.87 ± 1.2	95.35 ± 1.3	95.09 ± 1.5	95.92 ± 1.8
360 K, 15000 kPa	82.52 ± 2.2	86.67 ± 2.3	92.25 ± 2.5	95.57 ± 2.6	95.58 ± 3	95.63 ± 3.5

CO [methanol]
molar heat capacity at constant pressure [J/K/mol], [2]
Conditions	100 kPa	1000 kPa	5000 kPa	10000 kPa	15000 kPa
280 K	77.22 ± 3.2	74.02 ± 3.2	73.7 ± 5.8	–	–
320 K	87.15 ± 1.3	85.87 ± 3.2	84.27 ± 2.6	–	–
360 K	–	97.41 ± 1.9	94.2 ± 1.9	94.52 ± 2.6	97.09 ± 3.8
